Laboratory results taken from publication PMC7338124, “Characterization of neuraminidase inhibitor-resistant influenza virus isolates from immunocompromised patients in the Republic of Korea” (Virology Journal, 2020).

Experiments:
[1] = system: 2018–2019 isolates A(H1N1)pdm09 neuraminidase, Wild; format: biochemical, influenza A(H1N1)pdm09 virus
[2] = system: 2018–2019 isolates A(H3N2) neuraminidase, Wild; format: biochemical, influenza A(H3N2) virus
[3] = system: 2018–2019 isolates B neuraminidase, Wild; format: biochemical, influenza B virus
[4] = system: A/Korea/S0003/2019 A(H1N1)pdm09 neuraminidase, Variant (H275Y); format: biochemical, influenza A(H1N1)pdm09 virus
[5] = system: A/Korea/S0002/2019 A(H1N1)pdm09 neuraminidase, Variant (H275Y); format: biochemical, influenza A(H1N1)pdm09 virus

Compound	NAI resistance (IC50 fold change) [1]	NAI resistance (IC50 fold change) [2]	NAI resistance (IC50 fold change) [3]	NAI resistance (IC50 fold change) [4]	Susceptibility to NAI (in words) [4]	NAI resistance (IC50 fold change) [5]	Susceptibility to NAI (in words) [5]
CCOC(=O)C1=C[C@@H](OC(CC)CC)[C@H](NC(C)=O)[C@@H](N)C1 [Oseltamivir]	0.1–1.2 fold	0.1–0.2 fold	–	–	–	–	–
CCC(CC)[C@H](NC(C)=O)[C@@H]1[C@H](O)[C@@H](C(=O)O)C[C@H]1N=C(N)N [Peramivir]	0.1 fold	0.2–0.3 fold	0.3–0.4 fold	–	–	–	–
CC(=O)N[C@H]1[C@H]([C@H](O)[C@H](O)CO)OC(C(=O)O)=C[C@@H]1N=C(N)N [Zanamivir]	0.3–0.7 fold	0.4–0.8 fold	0.7–1.6 fold	NI 2.56 fold	normally susceptible	NI 0.44 fold	normally susceptible
